Data from patent US20220260566A1, “IMMUNITY MECHANISM AND THERAPEUTIC DRUG FOR GASTROINTESTINAL DISEASES” (GUANGZHOU WOMEN AND CHILDREN'S MEDICAL CENTER, priority 2018, published 2022).
Entries after “also recorded” stand apart in the source; their conditions may differ.

How the values were obtained:
CD39 = assay: Immunofluorescence of colonic mucosa before and after treatment: CD39 expression; assay type: in vivo, human
Experimental: (§1) Use formalin-fixed and paraffin-embedded paraffin blocks to prepare 3 um tissue sections. After deparaffinization, blocking antibodies (PBS containing 5% normal donkey or goat serum and 0.3% Triton X-100) are incubated for 1 hour at room temperature, and washed with PBS Then incubate the primary antibody (CD39, CD41, pT71-ATF2 or pS133-CREB) overnight in a 4 C dark humidified box. Then, after washing with PBS, incubate the secondary antibodies (goat anti-mouse IgG1 combined with AF488 and goat anti-rabbit IgG combined with Cy3) for 1 hour at room temperature, and then incubate the anti-quencher containing DAPI. Then, use the Lycra automatic inverted fluorescence microscope to observe and take pictures (20×0.75), and use the Lycra X image analysis software to process the brightness, luminosity, contrast and color balance of the image to restore the image as much as possible. For each observation condition, 4-5 areas in each mucosal section were randomly selected for observation, and the CD41 aggregation (fluorescence diameter greater than 7 μm) was measured and counted using the card X image analysis software.

[1] = system: TNF-α in monocytes and macrophages; assay: TNF-α expression in monocytes and macrophages in vitro; assay type: cell-based; details: in vitro and in vivo
[2] = system: DSS-induced acute colitis; assay: DSS-induced acute colitis model; assay type: in vivo, C57BL/6J mice
Experimental: Male C57BL/6J mice (20-22 g), six to eight weeks old, were purchased from Guangzhou University of Traditional Chinese Medicine. The mice were given regular food and water before the experiment. Weight-matched mice were used in all studies Animal research was approved by the Animal Care and Utilization Committee of Guangzhou Medical University (permit number: 2019-471) and was conducted in accordance with institutional guidelines.
The control mice were given regular food and water. The mice were monitored daily and if the weight loss exceeded 20%, they were euthanized.
For hematoxylin and eosin (H&E) staining, the colon was fixed in 4% paraformaldehyde (PFA) for 24 hours and embedded in paraffin. Prepare sections (3 μm) and deparaffinize before staining
To detect platelet aggregation in colon slices, the tissue was fixed in 4% PFA for 24 hours, cryoprotected in 30% sucrose for 48 hours, and then embedded in an Optimal Cutting Temperature (O.C.T.) compound. The frozen sections (5 μm) were washed, blocked with 10% goat serum, and incubated with anti-mouse CD41-FITC (133903, BioLegend, CA, USA) at 4° C. overnight.
After washing with PBS to remove unbound antibodies, the sections were fixed with […] anti-fading fixation medium (H-1200, Vector Laboratories, CA, USA) with DAPI for nuclear staining The immunofluorescence staining and image processing were performed as described above. Platelet aggregates are defined as CD41+ clusters (diameter >7 μm). Leica X image analysis software (Leica, Hamburg, Germany) and ImageJ software (National Institutes of Health, Maryland, USA) were used to count and analyze the number of CD41+ clusters per square millimeter. For each colon section, platelet aggregation in 5 randomly selected areas was recorded.
In order to analyze the expression of cytokines, the residual mesenteric fat in the colon was removed, weighed and dispersed in a single cell suspension with 1 mL of PBS. After centrifugation at 1000×g for 10 minutes at 4° C., the supernatant was taken to determine the concentration of TNF-α, IL-1β and IL-6 by ELISA.

[3] = system: CD68+ macrophages and TNF-α in the colonic mucosa; assay: Immunofluorescence of colonic mucosa before and after treatment: CD68+ macrophages, TNF-α, PDE4B; assay type: in vivo, human; details: for PDE4B: summary of immunological results after treatment; for macrophage invasion in colonic mucosa: children with colitis or IBD, after vs before methylprednisolone or anti-TNF-α, FIG. 6C
[4] = system: platelet aggregation (CD41 clusters) in the colonic mucosa; assay: Immunofluorescence of colonic mucosa before and after treatment: platelet aggregation (CD41 clusters); assay type: in vivo, human; details: children, after vs before dipyridamole treatment
Experimental: as §1

[5] = system: CD39 in colonic intraepithelial T cells; assay: CD39 expression of immune cells in DSS colitis model (flow cytometry); assay type: in vivo, mice
Experimental: From the second day of treatment, DSS was added to drinking water (2.5%) for 7 days. The control mice were given regular food and water. In order to analyze colon immune cells, the present invention harvests the colon and removes excess fat. After washing with ice-cold PBS, the colon was cut into pieces approximately 0.3-0.5 cm in length. After gentle rotation in the dissociation solution (HBSS without Ca/Mg, with 5 mM EDTA and 2% FBS) at 37° C. for 40 minutes, the intraepithelial lymphocytes (IEL) were pelleted, washed and resuspended in staining buffer (PBS 2% FBS). The remaining undigested colon tissue samples were gently rotated in the digestion solution (RPMI1640 containing 2% FBS, 2 mg/mL collagenase IV, 0.4 U/mL dispase and 1 μg/mL DNase) at 37° C. for 45 minutes. Pellet lamina propria lymphocytes (LPL), wash and resuspend in staining buffer. T cell plates (CD45-APC-Cy7, CD3-BV711, […]-Cy7, CD8-BV785, γδT-BV421 and CD4-APC) or myeloid plates (MHC II-BV550, CD11b-BV510 and CD39-PE-Cy7) were stained on ice for 30 minutes, and then analyzed on a FACSAria SORP flow cytometer (BD Science).

[6] = system: CD39 expression in CD8+ T cells; assay: CD39 expression during CD8+ T cell activation; assay type: cell-based; details: dose-dependent manner
[7] = system: HEK 293T cells stably transfected with the cAMP reporter gene GloSensor-22F cAMP plasmid; assay: cAMP reporter assay (GloSensor-22F cAMP plasmid); assay type: cell-based; details: HEK 293T reporter cells; 3 independent experiments; forskolin as positive control
From the text: FIG. 4: Highly inflammatory macrophage and dendritic cell (DC) infiltration in colitis and IBD patients compared to control subjects. […] The red and navy blue dots represent individual genes that pass the P value (≤0.05) and log 2 (Fold Change) (red, ≥1; navy blue, ≤−1) threshold. […] Forskolin, which increases the concentration of cAMP by activating adenylate cyclase, was used as a positive control. […] Colonic mucosa sections were stained with anti-CD68 to mark macrophages, and stained with NLRP3 and ASC for inflammasome. […] The P value was calculated using the Mann-Whitney U test, *, P<0.05****, P<0.0001. (D) Heat map showing the relative expression of colitis/IBD risk genes in myeloid cells.

[8] = system: subjects with colitis confirmed by endoscopy and subjects with undefined IBD (IBDU); assay: Clinical trial of dipyridamole in 9 children with endoscopy-confirmed colitis or undefined IBD (Table 6); assay type: in vivo, human
From the text: The inventors also conducted clinical trial studies in subjects with colitis confirmed by endoscopy and subjects with undefined IBD (IBDU) (Table 6).
In Table 6, PLT stands for platelet count, HGB stands for hemoglobin, and ALB stands for albumin.

children with colitis = assay: Clinical trial of dipyridamole in children with colitis (Table 5, 23 patients); assay type: in vivo, human
From the text: In the following, it is investigated whether the cAMP activation pathway regulates CD39 expression in T cells. […] The clinical trial was approved by the Ethical Review Committee of Guangzhou Women and Children's Medical Center and registered in the China Clinical Trial Registration Center (ChiCTR1800019803). All patients or family members signed an informed consent form.

activated ATF2 and CREB = assay: Immunofluorescence of colonic mucosa: activated ATF2 and CREB co-expressed with CD39; assay type: in vivo, human; details: children, after vs before dipyridamole treatment
Experimental: [Worded in the source for another target; this target is reported under the same test.] as §1, with “[…]-ATF2” for “pT71-ATF2”, “[…]-CREB)” for “pS133-CREB)”, “Lycra X” left out

[9] = system: children with colitis or IBD; assay: Children with colitis or IBD treated with methylprednisolone or anti-TNF-α antibody: colonoscopy and clinical status; assay type: in vivo, human
[10] = dipyridamole 10 mg/kg twice a day vs DSS alone, 3% DSS
[11] = dipyridamole 10 mg/kg vs DSS alone
[12] = children, after vs before dipyridamole (n=7), FIG. 7H

OCCN(CCO)c1nc(N2CCCCC2)c2nc(N(CCO)CCO)nc(N3CCCCC3)c2n1 [dipyridamole]
expression of CD39 in CD8 and CD4 T cells and macrophages of colonic mucosa (CD39; children, after vs before dipyridamole treatment): increase | expression of TNF-α in monocytes and macrophages [1]: inhibit | body weight [2, 10]: significantly increased | colon length [2, 10]: significantly increased | epithelial integrity and structure (HE stained colon sections) [2, 11]: improved | platelet aggregation in colonic mucosa (CD41+ clusters) [2, 11]: reduced | TNF-α expression in colon mucosa ([2]; dipyridamole vs DSS alone, ELISA): reduced | TNF-α expression in colonic mucosa [3, 12]: significantly reduced | macrophage infiltration in colonic mucosa [3, 12]: significantly reduced | PDE4B [3]: inhibited | platelet aggregation in the colonic mucosa (CD41 clusters) [4]: significantly reduced | CD39 expression in colonic epithelial CD4, CD8 and γδT cells ([5]; dipyridamole 5 mg/kg or 50 mg/kg for 8 days, 2.5% DSS, dose-dependent manner): significantly increased | expression of CD39 in CD4, CD8 and γδT cells ([5]; intraperitoneal injection of dipyridamole at 50 mg/kg): significantly increased | CD39 expression during CD8+ T cell activation [6]: significantly increased | cytoplasmic cAMP concentration [7]: significantly increase | clinical, endoscopic and histological severity scores ([8]; after vs before dipyridamole (FIG. 7E, Table 6)): significantly improved | adverse reactions ([8]; dipyridamole 3-5 mg/kg/day for 8 to 12 weeks): No obvious adverse reactions | Severity score, Post-treatment, median (children with colitis; after dipyridamole 3-5 mg/kg/day, treatment duration median 4 (2-12) weeks, 23 children, range 0-5, P < 0.0001 vs pre-treatment): 1 | Platelet counts, Post-treatment, median (children with colitis; after dipyridamole 3-5 mg/kg/day, 23 children, range 217-497, reference range 140-440, P = 0.0001 vs pre-treatment): 296 10^9/L | clinical severity score after treatment (children with colitis; after vs before dipyridamole (FIG. 3d)): significantly reduced | colon lining (colonoscopy appearance) (children with colitis; after vs before dipyridamole (FIG. 3d, 3e)): significantly improved | Severity score, Pre-treatment, median (children with colitis; baseline before dipyridamole, 23 children, range 4-14, scoring criteria of Table 4): 9 | Platelet counts, Pre-treatment, median (children with colitis; baseline before dipyridamole, 23 children, range 235-790, reference range 140-440): 370 10^9/L | adverse reactions (children with colitis; children with colitis, dipyridamole 3-5 mg/kg/day): no reports of adverse reactions | co-localized activated transcription factors ATF2 and CREB with CD39 in colonic mucosa (activated ATF2 and CREB): increased; also recorded: enhanced

C[C@H]1C[C@@H]2[C@H]([C@@H](O)C[C@@]3(C)[C@H]2CC[C@]3(O)C(=O)CO)[C@@]2(C)C=CC(=O)C=C12 [methylprednisolone]
macrophage invasion in colonic mucosa [3]: no effect | PDE4B [3]: no effect

anti-TNF-α: Anti-TNF-α drug (Infliximab), anti-TNF-α antibody biologic used to treat colitis and IBD
expression of CD39 (CD39 IET) in colonic mucosa (CD39; children with colitis or IBD, after vs before methylprednisolone (n=5) or anti-TNF-α (n=6), FIG. 6C): no effect | appearance of the colon (colonoscopy) ([9]; after vs before treatment, FIG. 6B): improved | clinical status / clinical symptoms ([9]; patients with inflammatory bowel disease, for methylprednisolone some patients only): improved | macrophage invasion in colonic mucosa [3]: no effect
